The compounds below were run against hDGAT2 (Homo sapiens (Human), UniProt Q96PD7) (assay: DGAT2 Enzymatic Activity Assay (triolein formation, LC/MS/MS)). Conditions: Sf-9 membrane prep expressing hDGAT2; 25 μM diolein, 10 μM oleoyl-CoA; room temperature; read-out: IC50 values for inhibition of DGAT2.
Assay type: biochemical
Procedure: In Vitro DGAT2 ASSAYS and Determination of IC50 Values for DGAT2 Inhibitors
Insect Cell Expression and Membrane Preparation
Sf-9 insect cells were maintained in Grace's insect cell culture medium with 10% heated-inactivated fetal bovine serum, 1% Pluronic F-68 and 0.14 μg/ml Kanamycine sulfate in Erlenmeyer flasks at 28° C. in a shaker incubator. After infection with untagged hDGAT2 baculovirus at multiplicity of infection (MOI) 0.1 for 48 hours, cells were harvested. Cell pellets were suspended in buffer containing 10 mM Tris-HCl (pH 7.5), 1 mM EDTA (pH 8.0), 250 mM sucrose and Complete Protease Inhibitor Cocktail (Roche Diagnostics Corp., Indianapolis, Ill.), and sonicated on ice. Membrane fractions were isolated by ultracentrifugation (100,000× g pellet), resuspended in the same buffer, and frozen (−80° C.) for later use. The protein concentration was determined with the BCA Protein Assay kit (Pierce Biotechnology Inc., Rockford, Ill.). Expression of protein levels was analyzed by immunoblotting with goat polyclonal DGAT2 antibody C-15 and donkey anti-goat IgG HRP (Santa Cruz Biotechnology, Inc., Santa Cruz, Calif.) followed by detection with ECL reagent (GE Healthcare, Piscataway, N.J.).
LC/MS/MS analyses were performed using Thermal Fisher's LX4-TSQ Vantage system. This system consists of an Agilent binary high-performance liquid chromatography (HPLC) pumps and a TSQ Vantage triple quadrupole MS/MS instrument. For each sample, 2 μL samples from the top organic layer of in-plate liquid-liquid extraction were injected onto a Thermo Betabasic C4 column (2.1 mm×20 mm, 5 μm particle size). The samples were then eluted using the following conditions; mobile phase: methanol/water with 0.1% ammonium format=92/8 (v/v), flow rate: 1 mL/min, temperature: 25° C. Data was acquired in positive mode using a heated electrospray ionization (HESI) interface. The operational parameters for the TSQ Vantage MS/MS instrument were a spray voltage of 3000 V, capillary temperature of 280° C., vaporizer temperature 400° C., shealth gas 60 arbitrary unit, Aux gas 40 arbitrary units, S-lens 113 and collision gas 0.16 Pascals. […] (SRM) chromatograms of triolein (Q1: 902.9>Q3:602.3) and internal standard (Q1: 902.9>Q3:602.3) were collected for 40 sec. The peak area was integrated by Xcalibur Quan software. The ratio between the triolein generated in the reaction and spiked in internal standard were used to generate percentage inhibition and IC50 values. Compound percentage inhibition was calculated by the following formula: Inhibition %=1−[(compound response−low control)/(high control−low control)]×100%. Potent compounds were titrated and IC50 were calculated by 4 parameter sigmoidal curve fitting formula.
DGAT2 Enzymatic Activity Assay
DGAT2 activity was determined by measuring the amount of enzymatic product triolein (1,2,3-Tri(cis-9-octadecenoyl)glycerol) using the membrane prep mentioned above. The assay was carried out in deep well 384 plates in a final volume of 40 μL at room temperature. The assay mixture contained the following: assay buffer (100 mM Tris·Cl, pH 7.0, 20 mM MgCl2, 5% ethanol), 25 μM of diolein, 10 μM of oleoyl-CoA and 10 ng/μL of DGAT2 membrane.

Chain of hDGAT2 (Q96PD7 whole entry): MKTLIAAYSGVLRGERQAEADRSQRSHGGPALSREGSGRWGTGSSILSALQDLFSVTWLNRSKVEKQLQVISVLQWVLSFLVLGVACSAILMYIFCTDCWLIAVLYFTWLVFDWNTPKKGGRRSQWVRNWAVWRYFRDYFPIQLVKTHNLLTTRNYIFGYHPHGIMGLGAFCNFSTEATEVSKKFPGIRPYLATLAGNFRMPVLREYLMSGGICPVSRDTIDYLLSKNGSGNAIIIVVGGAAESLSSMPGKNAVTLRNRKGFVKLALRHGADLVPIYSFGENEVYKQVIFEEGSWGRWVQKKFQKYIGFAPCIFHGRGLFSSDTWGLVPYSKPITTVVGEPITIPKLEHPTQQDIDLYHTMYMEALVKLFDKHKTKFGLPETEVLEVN

IC50 | Compound
1280 nM | CC(CNC(=O)c1ccc(-c2cccc(C(F)(F)F)c2)c2c1CN(C(=O)NC(C)(C)C)CC2)c1ncco1 (centres unmarked) [Example 45, N^2-(tert-butyl)-N^8-(2-(oxazol-2-yl)propyl)-5-(3-(trifluoromethyl)phenyl)-3,4-dihydroisoquinoline-2,8(1H)-dicarboxamide]
1300 nM | CC(CNC(=O)c1ccc(-c2cccc(C(F)(F)F)c2)c2c1CN(C(=O)NC(C)(C)C)CC2)c1ccno1 (centres unmarked) [Example 46, N^2-(tert-butyl)-N^8-(2-(isoxazol-5-yl)propyl)-5-(3-(trifluoromethyl)phenyl)-3,4-dihydroisoquinoline-2,8(1H)-dicarboxamide]
1200 nM | Cc1nnc(CCNC(=O)c2ccc(-c3cccc(C(F)(F)F)c3)c3c2CN(C(=O)NC(C)(C)C)CC3)[nH]1 [Example 47, N^2-(tert-butyl)-N^8-(2-(5-methyl-4H-1,2,4-triazol-3-yl)ethyl)-5-(3-(trifluoromethyl)phenyl)-3,4-dihydroisoquinoline-2,8(1H)-dicarboxamide]
1410 nM | CC(C)(C)NC(=O)N1CCc2c(-c3cccc(C(F)(F)F)c3)ccc(C(=O)NCCn3cncn3)c2C1 [Example 48, N^8-(2-(1H-1,2,4-triazol-1-yl)ethyl)-N^2-(tert-butyl)-5-(3-(trifluoromethyl)phenyl)-3,4-dihydroisoquinoline-2,8(1H)-dicarboxamide]
1570 nM | CC(C)(C)NC(=O)N1CCc2c(-c3cccc(C(F)(F)F)c3)ccc(C(=O)NCCc3cn4cccnc4n3)c2C1 [Example 49, N^2-(tert-butyl)-N^8-(2-(imidazo[1,2-a]pyrimidin-2-yl)ethyl)-5-(3-(trifluoromethyl)phenyl)-3,4-dihydroisoquinoline-2,8(1H)-dicarboxamide]
1970 nM | Cc1noc(C)c1CCNC(=O)c1ccc(-c2cccc(C(F)(F)F)c2)c2c1CN(C(=O)NC(C)(C)C)CC2 [Example 50, N^2-(tert-butyl)-N^8-(2-(3,5-dimethylisoxazol-4-yl)ethyl)-5-(3-(trifluoromethyl)phenyl)-3,4-dihydroisoquinoline-2,8(1H)-dicarboxamide]
2030 nM | CC(C)(C)NC(=O)N1CCc2c(-c3cccc(C(F)(F)F)c3)ccc(C(=O)NCc3nnc4n3CCC4)c2C1 [Example 51, N^2-(tert-butyl)-N^8-((6,7-dihydro-5H-pyrrolo[2,1-c][1,2,4]triazol-3-yl)methyl)-5-(3-(trifluoromethyl)phenyl)-3,4-dihydroisoquinoline-2,8(1H)-dicarboxamide]
2420 nM | CC(C)(C)NC(=O)N1CCc2c(-c3cccc(C(F)(F)F)c3)ccc(C(=O)NCCc3ccc(C(F)(F)F)cc3)c2C1 [Example 52, N^2-(tert-butyl)-N^8-(4-(trifluoromethyl)phenethyl)-5-(3-(trifluoromethyl)phenyl)-3,4-dihydroisoquinoline-2,8(1H)-dicarboxamide]
3340 nM | CC(C)(C)NC(=O)N1CCc2c(-c3cccc(C(F)(F)F)c3)ccc(C(=O)Nc3nonc3-c3nc4ccccc4[nH]3)c2C1 [Example 53, N^8-(4-(1H-benzo[d]imidazol-2-yl)-1,2,5-oxadiazol-3-yl)-N^2-(tert-butyl)-5-(3-(trifluoromethyl)phenyl)-3,4-dihydroisoquinoline-2,8(1H)-dicarboxamide]
3720 nM | CC(C)(C)NC(=O)N1CCc2c(-c3cccc(C(F)(F)F)c3)ccc(C(=O)NCCc3cnc4ccccn34)c2C1 [Example 54, N^2-(tert-butyl)-N^8-(2-(imidazo[1,2-a]pyridin-3-yl)ethyl)-5-(3-(trifluoromethyl)phenyl)-3,4-dihydroisoquinoline-2,8(1H)-dicarboxamide]
2150 nM | CC(C)(C)NC(=O)N1CCc2c(-c3cccc(OC(F)(F)F)c3)ccc(C(=O)NCc3cn4cccnc4n3)c2C1 [Example 55, N^2-(tert-butyl)-N^8-(imidazo[1,2-a]pyrimidin-2-ylmethyl)-5-(3-(trifluoromethoxy)phenyl)-3,4-dihydroisoquinoline-2,8(1H)-dicarboxamide]
7950 nM | Cc1nccn1CCNC(=O)c1ccc(-c2cccc(C(F)(F)F)c2)c2c1CN(C(=O)NC(C)(C)C)CC2 [Example 56, N^2-(tert-butyl)-N^8-(2-(2-methyl-1H-imidazol-1-yl)ethyl)-5-(3-(trifluoromethyl)phenyl)-3,4-dihydroisoquinoline-2,8(1H)-dicarboxamide]
8760 nM | CC(C)(C)NC(=O)N1CCc2c(-c3cccc(OC(F)(F)F)c3)ccc(C(=O)N3CCCCC3c3ccccc3)c2C1 (centres unmarked) [Example 57, N-(tert-butyl)-8-(2-phenylpiperidine-1-carbonyl)-5-(3-(trifluoromethoxy)phenyl)-3,4-dihydroisoquinoline-2(1H)-carboxamide]
16.7 nM | CC(C)(C)NC(=O)N1CCc2c(-c3cccc(C(F)(F)F)c3)ccc(C(=O)NCCc3nc4ccc(Cl)cc4[nH]3)c2C1 [Example 58, N^2-(tert-butyl)-N^8-(2-(6-chloro-1H-benzo[d]imidazol-2-yl)ethyl)-5-(3-(trifluoromethyl)phenyl)-3,4-dihydroisoquinoline-2,8(1H)-dicarboxamide]
82.9 nM | COc1ccc2nc(CCNC(=O)c3ccc(-c4cccc(C(F)(F)F)c4)c4c3CN(C(=O)NCC(F)(F)F)CC4)[nH]c2c1 [Example 59, N^8-(2-(6-methoxy-1H-benzo[d]imidazol-2-yl)ethyl)-N^2-(2,2,2-trifluoroethyl)-5-(3-(trifluoromethyl)phenyl)-3,4-dihydroisoquinoline-2,8(1H)-dicarboxamide]
1350 nM | Cc1nnc(CCNC(=O)c2ccc(-c3cccc(C(F)(F)F)c3)c3c2CN(C(=O)NC(C)(C)C)CC3)[nH]1 [Example 60, N^2-(tert-butyl)-N^8-(2-(5-methyl-4H-1,2,4-triazol-3-yl)ethyl)-5-(3-(trifluoromethyl)phenyl)-3,4-dihydroisoquinoline-2,8(1H)-dicarboxamide]
3840 nM | CC(NC(=O)c1ccc(-c2cccc(C(F)(F)F)c2)c2c1CN(C(=O)NC(C)(C)C)CC2)c1nnc[nH]1 (centres unmarked) [Example 62, N^8-(1-(4H-1,2,4-triazol-3-yl)ethyl)-N^2-(tert-butyl)-5-(3-(trifluoromethyl)phenyl)-3,4-dihydroisoquinoline-2,8(1H)-dicarboxamide]
2060 nM | CC(C)(C)NC(=O)N1CCc2c(-c3cccc(C(F)(F)F)c3)ccc(C(=O)NC3(c4ccccn4)CC3)c2C1 [Example 63, N^2-(tert-butyl)-N^8-(1-(pyridin-2-yl)cyclopropyl)-5-(3-(trifluoromethyl)phenyl)-3,4-dihydroisoquinoline-2,8(1H)-dicarboxamide]
390 nM | CC(NC(=O)c1ccc(-c2cccc(C(F)(F)F)c2)c2c1CN(C(=O)NC(C)(C)C)CC2)c1cn2ncsc2n1 (centres unmarked) [Example 64, N^2-(tert-butyl)-N^8-(1-(imidazo[2,1-b][1,3,4]thiadiazol-6-yl)ethyl)-5-(3-(trifluoromethyl)phenyl)-3,4-dihydroisoquinoline-2,8(1H)-dicarboxamide]
53.4 nM | CC(C)(C)NC(=O)N1CCc2c(-c3cccc(C(F)(F)F)c3)ccc(C(=O)NCc3cnc4ccccn34)c2C1 [Example 66, N^2-(tert-butyl)-N^8-(imidazo[1,2-a]pyridin-3-ylmethyl)-5-(3-(trifluoromethyl)phenyl)-3,4-dihydroisoquinoline-2,8(1H)-dicarboxamide]

Source: patent US9877957B2, “Tetrahydroisoquinoline derivatives useful as inhibitors of diacylglyceride O-acyltransferase 2” (Merck Sharp & Dohme Corp., priority 2014, dated 2018)
